What is called IC50 is the point on the concentration scale where inhibition reaches its midpoint.

One assay addresses T1, tankyrase 1 (Homo sapiens, UniProt O95271).
T1 construct: purchased Trevigen 4700-096-K
T1 sequence (O95271 1-1327): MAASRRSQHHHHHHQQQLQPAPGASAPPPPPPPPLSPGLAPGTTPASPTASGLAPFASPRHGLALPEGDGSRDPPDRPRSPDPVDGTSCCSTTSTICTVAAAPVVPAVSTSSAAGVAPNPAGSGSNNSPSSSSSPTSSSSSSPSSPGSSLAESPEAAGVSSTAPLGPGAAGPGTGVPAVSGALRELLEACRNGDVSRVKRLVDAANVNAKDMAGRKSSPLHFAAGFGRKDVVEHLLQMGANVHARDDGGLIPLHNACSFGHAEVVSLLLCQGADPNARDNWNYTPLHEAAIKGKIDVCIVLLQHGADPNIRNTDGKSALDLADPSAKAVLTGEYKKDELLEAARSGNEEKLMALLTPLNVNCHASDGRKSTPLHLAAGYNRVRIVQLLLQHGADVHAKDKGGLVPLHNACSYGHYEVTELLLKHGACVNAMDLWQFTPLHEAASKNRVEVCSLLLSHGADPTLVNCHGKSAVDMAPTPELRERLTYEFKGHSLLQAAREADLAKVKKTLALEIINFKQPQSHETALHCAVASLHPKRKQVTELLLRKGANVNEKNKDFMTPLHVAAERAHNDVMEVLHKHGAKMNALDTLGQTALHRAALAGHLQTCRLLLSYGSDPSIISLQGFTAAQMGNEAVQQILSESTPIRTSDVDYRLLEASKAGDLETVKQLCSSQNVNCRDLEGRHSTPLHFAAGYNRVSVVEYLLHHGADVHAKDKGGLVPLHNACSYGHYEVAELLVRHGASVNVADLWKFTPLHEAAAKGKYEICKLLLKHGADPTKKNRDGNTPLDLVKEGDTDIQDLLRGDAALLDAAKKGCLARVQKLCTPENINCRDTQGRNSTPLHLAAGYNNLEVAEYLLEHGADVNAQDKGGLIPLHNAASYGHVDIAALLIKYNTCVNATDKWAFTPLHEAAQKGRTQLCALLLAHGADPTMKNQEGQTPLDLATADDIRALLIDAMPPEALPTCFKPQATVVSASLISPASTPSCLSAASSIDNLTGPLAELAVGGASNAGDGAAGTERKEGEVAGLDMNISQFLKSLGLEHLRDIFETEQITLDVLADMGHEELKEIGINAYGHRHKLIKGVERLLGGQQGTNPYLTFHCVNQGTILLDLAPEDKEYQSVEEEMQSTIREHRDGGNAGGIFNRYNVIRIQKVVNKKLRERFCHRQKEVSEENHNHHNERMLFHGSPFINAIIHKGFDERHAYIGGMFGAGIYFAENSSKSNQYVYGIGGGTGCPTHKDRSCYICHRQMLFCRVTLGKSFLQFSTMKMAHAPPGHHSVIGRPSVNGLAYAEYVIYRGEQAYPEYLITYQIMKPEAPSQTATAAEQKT
Put plainly: Analysis of activity of tankyrase 1 (Trevigen kit, ELISA absorbance at 450 nm). It counts as biochemical.
Conditions: not given
As for the experimental part: Activities of novel compounds synthesized according to Examples 1 to 72 against tankyrase 1 were analyzed using a Trevigen kit (Cat. No. 4700-096-K). Poly PAR histone protein-coated 96-well plate, anti-PAR monoclonal antibody and goat anti-mouse IgG-HRP were used for measurement of absorbance by ELISA method. Specifically, 20× I-PAR assay buffer was diluted to 1× by adding water, and 50 μL of the diluted buffer was added to each well of the 96-well plate followed by reacting at rt for 30 min. Then, the supernatant was completely removed from each well and 10 μL of 1× I-PAR assay buffer and 15 μL of assay substrate were added to each well along with 1 μL of a 50× solution of inhibitors to be tested, which were the compounds obtained in the Examples 1 to 72. 10 mUnits/μL of tankyrase 1 enzyme was diluted 50-fold with 1× I-PAR assay buffer and 25 μL of the diluted enzyme was added to each well and reacted while stirring at rt for 30 min. One without any compound of the present invention was used as a positive control and another containing 1× I-PAR assay buffer with the same volume instead of tankyrase 1 enzyme was used as a negative control. Upon completion of the reaction, 200 μL of PBSX, which was prepared by adding 0.1% triton X-100 to PBS, was added and removed and this washing process was repeated twice. Washing was repeated twice more using PBS in the same manner. 5× antibody diluent was diluted with distilled water to 1× concentration, 50 μL of the diluted goat anti-mouse IgG-HRP to 1/2000 was added to each well and reacted while stirring at rt for 30 min. Washes were carried out twice using PBSX and PBS, respectively. After adding 50 μL of TACS-sapphire to each well of the plate, the plate was blocked from light to react for 10 min to 15 min and the color of the reaction solution turned blue. To stop the reaction, 50 μL of 0.2N HCl was added to turn the solution yellow. Finally, the absorbance of the resulting solution was measured at 450 nm.
A general note: ELISA stands for enzyme-linked immunosorbent assay.
On to `Cn1nnc2c(=O)[nH]c(N3CCN(c4c(F)cc(F)cc4F)CC3)nc21` [compound 22, 3-Methyl-5-(4-(2,4,6-trifluorophenyl)piperazin-1-yl)-3H-[1,2,3]triazolo[4,5-d]pyrimidin-7(6H)-one], for which the midpoint of inhibition, the IC50, lay at 0.0497 µM.

The compound `COCCOc1cc(F)c(N2CCN(c3cc4c(nnn4C)c(=O)[nH]3)CC2)c(F)c1` [compound 53, 6-(4-(2,6-Difluoro-4-(2-methoxyethoxy)phenyl)piperazin-1-yl)-1-methyl-1H[1,2,3]triazolo[4,5-c]pyridin-4(5H)-one] registered an IC50 of 0.0227 µM.

The same assay, now with this note: tankyrase 1 enzyme, Trevigen kit Cat. No. 4700-096-K, 30 min at rt; read-out: TNKS1 (IC50).
With `COCCOc1cc(F)c(C2(O)CCN(c3nc4c(nnn4C)c(=O)[nH]3)CC2)c(F)c1` [compound 25, 5-(4-(2,6-Difluoro-4-(2-methoxyethoxy)phenyl)-4-hydroxypiperidin-1-yl)-3-methyl-3H-[1,2,3]triazolo[4,5-d]pyrimidin-7(6H)-one], the IC50 was found to be 0.0331 µM. On the same count and under the same terms, with `Cn1nnc2c(=O)[nH]c(N3CCC(c4nnn[nH]4)CC3)nc21` [compound 26, 5-(4-(1H-tetrazol-5-yl)piperidin-1-yl)-3-methyl-3H-[1,2,3]triazolo[4,5-d]pyrimidin-7(6H)-one] the figure was 0.411 µM; with `CN1CCN(CCOc2cc(F)c(N3CCN(c4nc5c(nnn5C)c(=O)[nH]4)CC3)c(F)c2)CC1` [compound 32, 5-(4-(2,6-Difluoro-4-(2-(4-methylpiperazin-1-yl)ethoxy)phenyl)piperazin-1-yl)-3-methyl-3H-[1,2,3]triazolo[4,5-d]pyrimidin-7(6H)-one], 0.12 µM; with `Cn1nnc2c(=O)[nH]c(N3CCN(c4c(F)cc(OCCCN5CCCCC5)cc4F)CC3)nc21` [compound 33, 5-(4-(2,6-Difluoro-4-(3-(piperidin-1-yl)propoxy)phenyl)piperazin-1-yl)-3-methyl-3H-[1,2,3]triazolo[4,5-d]pyrimidin-7(6H)-one], 0.0513 µM. On the same count and under the same terms, with `COCCN(CCOC)c1cc(F)c(N2CCN(c3nc4c(nnn4C)c(=O)[nH]3)CC2)c(F)c1` [compound 34, 5-(4-(4-(Bis(2-methoxyethyl)amino)-2,6-difluorophenyl)piperazin-1-yl)-3-methyl-3H-[1,2,3]triazolo[4,5-d]pyrimidin-7(6H)-one] the figure was 0.0677 µM. Same read-out and setting: for `Cn1nnc2c(=O)[nH]c(N3CCN(c4c(F)cc(OCC(=O)N5CCCCC5)cc4F)CC3)nc21` [compound 35, 5-(4-(2,6-Difluoro-4-(2-oxo-2-(piperidin-1-yl)ethoxy)phenyl)piperazin-1-yl)-3-methyl-3H-[1,2,3]triazolo[4,5-d]pyrimidin-7(6H)-one] the value was 0.0487 µM; for `Cn1nnc2c(=O)[nH]c(N3CCN(c4c(F)cc(OCC(=O)N5CCCC5)cc4F)CC3)nc21` [compound 36, 5-(4-(2,6-Difluoro-4-(2-oxo-2-(pyrrolidin-1-yl)ethoxy)phenyl)piperazin-1-yl)-3-methyl-3H-[1,2,3]triazolo[4,5-d]pyrimidin-7(6H)-one], 0.0396 µM; for `Cn1nnc2c(=O)[nH]c(N3CCN(c4c(F)cc(OCCN)cc4F)CC3)nc21` [compound 37, 5-(4-(4-(2-Aminoethoxy)-2,6-difluorophenyl)piperazin-1-yl)-3-methyl-3H-[1,2,3]triazolo[4,5-d]pyrimidin-7(6H)-one], 0.0281 µM. `CN1CCN(CCOc2cc(F)c(N3CCN(c4nc5c(nnn5C)c(=O)[nH]4)CC3)c(F)c2)C(=O)C1` [compound 38, 5-(4-(2,6-Difluoro-4-(2-(4-methyl-2-oxopiperazin-1-yl)ethoxy)phenyl)piperazin-1-yl)-3-methyl-3H-[1,2,3]triazolo[4,5-d]pyrimidin-7(6H)-one]: the IC50 was determined as 0.043 µM. Still for that read-out and setting: with `Cn1nnc2c(=O)[nH]c(N3CCN(c4c(F)cc(OCCN5CCC(N)CC5)cc4F)CC3)nc21` [compound 39, 5-(4-(4-(2-(4-Aminopiperidin-1-yl)ethoxy)-2,6-difluorophenyl)piperazin-1-yl)-3-methyl-3H-[1,2,3]triazolo[4,5-d]pyrimidin-7(6H)-one] the figure was 0.0227 µM; with `COCCCc1cc(F)c(N2CCN(c3nc4c(nnn4C)c(=O)[nH]3)CC2)c(F)c1` [compound 40, 5-(4-(2,6-Difluoro-4-(3-methoxypropyl)phenyl)piperazin-1-yl)-3-methyl-3H-[1,2,3]triazolo[4,5-d]pyrimidin-7(6H)-one], 0.0931 µM.

Regarding `Cn1nnc2c(=O)[nH]c(N3CCN(c4c(F)cc(OCCN5CCC(O)C5)cc4F)CC3)nc21` (centres unmarked) [compound 41, 5-(4-(2,6-Difluoro-4-(2-(3-hydroxypyrrolidin-1-yl)ethoxy)phenyl)piperazin-1-yl)-3-methyl-3H-[1,2,3]triazolo[4,5-d]pyrimidin-7(6H)-one], the IC50 is 0.0713 µM. On the same count and under the same terms, with `Cn1nnc2c(=O)[nH]c(N3CCN(c4c(F)cc(OCCN5CCC(O)CC5)cc4F)CC3)nc21` [compound 42, 5-(4-(2,6-Difluoro-4-(2-(4-hydroxypiperidin-1-yl)ethoxy)phenyl)piperazin-1-yl)-3-methyl-3H-[1,2,3]triazolo[4,5-d]pyrimidin-7(6H)-one] the figure was 0.0514 µM. In the case of `Cn1nnc2c(=O)[nH]c(N3CCN(c4c(F)cc(OCCN5CCC(C)(O)CC5)cc4F)CC3)nc21` [compound 43, 5-(4-(2,6-Difluoro-4-(2-(4-hydroxy-4-methylpiperidin-1-yl)ethoxy)phenyl)piperazin-1-yl)-3-methyl-3H-[1,2,3]triazolo[4,5-d]pyrimidin-7(6H)-one], the concentration for half-maximal inhibition (IC50) was 0.0509 µM. On the same count and under the same terms, for `COCCOc1cc(F)c(C2=CCN(c3nc4c(nnn4C)c(=O)[nH]3)CC2)c(F)c1` [compound 44, 5-(4-(2,6-Difluoro-4-(2-methoxyethoxy)phenyl)-5,6-dihydropyridin-1(2H)-yl)-3-methyl-3H-[1,2,3]triazolo[4,5-d]pyrimidin-7(6H)-one] the value was 0.0529 µM; for `COCCOc1cc(F)c(C2CCN(c3nc4c(nnn4C)c(=O)[nH]3)CC2)c(F)c1` [compound 45, 5-(4-(2,6-Difluoro-4-(2-methoxyethoxy)phenyl)piperidin-1-yl)-3-methyl-3H-[1,2,3]triazolo[4,5-d]pyrimidin-7(6H)-one], 0.0376 µM. Still for that read-out and setting: for `Cn1nnc2c(=O)[nH]c(N3CCN(c4c(F)cc(OCCN5CCOCC5)cc4F)CC3)cc21` [compound 54, 6-(4-(2,6-Difluoro-4-(2-morpholinoethoxy)phenyl)piperazin-1-yl)-1-methyl-1H-[1,2,3]triazolo[4,5-c]pyridin-4(5H)-one] the value was 0.011 µM. The same measure, in the same setting: for `Cn1nnc2c(=O)[nH]c(N3CCN(c4c(F)cc(OCCN5CCCCC5)cc4F)CC3)cc21` [compound 55, 6-(4-(2,6-Difluoro-4-(2-(piperidin-1-yl)ethoxy)phenyl)piperazin-1-yl)-1-methyl-1H-[1,2,3]triazolo[4,5-c]pyridin-4(5H)-one] the value was 0.0293 µM.
